Measurements: patent US20020111274A1, “1-alkyl-3-[1-(substituted phenyl) benzotriazol-6-yl] uracils” (BASF Aktiengesellschaft, priority 2000, published 2002)

How the values were obtained:
Parameters in all cases: scale not given here
[1] = test system: GALAP Galium; test: Postemergence herbicidal evaluation, GALAP; type: in vivo, Galium aparine; conditions: postemergence spray, rated about two-three weeks after treatment
Procedure, shortened: (§1)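 Ratings from greenhouse plants scored about two to three weeks after a foliar spray; data from multiple tests averaged. Seedlings about two weeks old received roughly 0.006–0.400 kg/ha active compound in 80/20 acetone/water with 1.0% methylated seed oil.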

[2] = test system: AMBEL Ragweed, Common; test: Preemergence herbicidal evaluation, AMBEL; type: in vivo, Ambrosia artemisifolia, L.; conditions: preemergence
Procedure, shortened: (§2)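 Seeds mixed with potting soil in cups, then sprayed preemergence with aqueous acetone test solution at about 0.013 to 0.800 kg per hectare equivalent. Cups kept under standard greenhouse care; plants rated on a visual scale four to five weeks after treatment.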

[3] = test system: ORYSAT Rice, Tebonnet; test: Preemergence herbicidal evaluation, ORYSAT; type: in vivo, Oryza sativa, (L.); conditions: preemergence
Procedure, shortened: as §2

[4] = test system: CHEAL Lambsquarters, Common; test: Preemergence herbicidal evaluation, CHEAL; type: in vivo, Chenopodium album, L.; conditions: preemergence
Procedure, shortened: as §2

[5] = test system: SETVI Foxtail, Green; test: Preemergence herbicidal evaluation, SETVI; type: in vivo, Setaria viridis, (L.) Beau; conditions: preemergence
Procedure, shortened: as §2

[6] = test system: GLXMAW Soybean, Williams; test: Postemergence herbicidal evaluation, GLXMAW; type: in vivo, Glycine max, (L.) Merr. cv Williams; conditions: postemergence spray, rated about two-three weeks after treatment
Procedure, shortened: as §1

[7] = test system: ECHOG Barnyardgrass; test: Preemergence herbicidal evaluation, ECHOG; type: in vivo, Echinochloa crus-galli, (L.) Beau; conditions: preemergence
Procedure, shortened: as §2

[8] = test system: TRZAWR Wheat, Winter, cv Riband; test: Preemergence herbicidal evaluation, TRZAWR; type: in vivo, Triticum aestivum; conditions: preemergence
Procedure, shortened: as §2

[9] = test system: TRZAWR Wheat, Winter, cv Riband; test: Postemergence herbicidal evaluation, TRZAWR; type: in vivo, Triticum aestivum; conditions: postemergence spray, rated about two-three weeks after treatment
Procedure, shortened: as §1

[10] = test system: ABUTH Velvetleaf; test: Postemergence herbicidal evaluation, ABUTH; type: in vivo, Abutilon theophrasti, Medic.; conditions: postemergence spray, rated about two-three weeks after treatment
Procedure, shortened: as §1

[11] = test system: ZEAMX Corn, Field; test: Postemergence herbicidal evaluation, ZEAMX; type: in vivo, Zea mays, L. (Sammel-Bezeichnung); conditions: postemergence spray, rated about two-three weeks after treatment
Procedure, shortened: as §1

[12] = test system: CASOB Sicklepod; test: Preemergence herbicidal evaluation, CASOB; type: in vivo, Cassia obtusifolia, L.; conditions: preemergence
Procedure, shortened: as §2

[13] = test system: CHEAL Lambsquarters, Common; test: Postemergence herbicidal evaluation, CHEAL; type: in vivo, Chenopodium album, L.; conditions: postemergence spray, rated about two-three weeks after treatment
Procedure, shortened: as §1

[14] = test system: ECHOG Barnyardgrass; test: Postemergence herbicidal evaluation, ECHOG; type: in vivo, Echinochloa crus-galli, (L.) Beau; conditions: postemergence spray, rated about two-three weeks after treatment
Procedure, shortened: as §1

[15] = test system: GALAP Galium; test: Preemergence herbicidal evaluation, GALAP; type: in vivo, Galium aparine; conditions: preemergence
Procedure, shortened: as §2

[16] = test system: IPOHE Morningglory, Ivyleaf; test: Postemergence herbicidal evaluation, IPOHE; type: in vivo, Ipomoea hederacea, (L.) Jacq.; conditions: postemergence spray, rated about two-three weeks after treatment
Procedure, shortened: as §1

[17] = test system: SETVI Foxtail, Green; test: Postemergence herbicidal evaluation, SETVI; type: in vivo, Setaria viridis, (L.) Beau; conditions: postemergence spray, rated about two-three weeks after treatment
Procedure, shortened: as §1

[18] = test system: IPOHE Morningglory, Ivyleaf; test: Preemergence herbicidal evaluation, IPOHE; type: in vivo, Ipomoea hederacea, (L.) Jacq.; conditions: preemergence
Procedure, shortened: as §2

[19] = test system: ZEAMX Corn, Field; test: Preemergence herbicidal evaluation, ZEAMX; type: in vivo, Zea mays, L. (Sammel-Bezeichnung); conditions: preemergence
Procedure, shortened: as §2

[20] = test system: ABUTH Velvetleaf; test: Preemergence herbicidal evaluation, ABUTH; type: in vivo, Abutilon theophrasti, Medic.; conditions: preemergence
Procedure, shortened: as §2

[21] = test system: AMBEL Ragweed, Common; test: Postemergence herbicidal evaluation, AMBEL; type: in vivo, Ambrosia artemisifolia, L.; conditions: postemergence spray, rated about two-three weeks after treatment
Procedure, shortened: as §1

[22] = test system: GLXMAW Soybean, Williams; test: Preemergence herbicidal evaluation, GLXMAW; type: in vivo, Glycine max, (L.) Merr. cv Williams; conditions: preemergence
Procedure, shortened: as §2

[23] = test system: CASOB Sicklepod; test: Postemergence herbicidal evaluation, CASOB; type: in vivo, Cassia obtusifolia, L.; conditions: postemergence spray, rated about two-three weeks after treatment
Procedure, shortened: as §1

[24] = test system: ORYSAT Rice, Tebonnet; test: Postemergence herbicidal evaluation, ORYSAT; type: in vivo, Oryza sativa, (L.); conditions: postemergence spray, rated about two-three weeks after treatment
Procedure, shortened: as §1

COc1ccc(-n2nnc3cc(F)c(-n4c(=O)cc(C(F)(F)F)n(C)c4=O)cc32)cc1 [Example 27]
0.0: AMBEL herbicidal rating ([2]; rate 0.016 kg/ha) | CASOB herbicidal rating ([12]; rate 0.016 kg/ha) | IPOHE herbicidal rating ([18]; rate 0.016 kg/ha)
6.0: ORYSAT herbicidal rating ([3]; rate 0.125 kg/ha) | Postemergence herbicidal rating GLXMAW ([6]; 0.016 kg/ha) | Postemergence herbicidal rating GLXMAW ([6]; 0.032 kg/ha) | ABUTH herbicidal rating ([20]; rate 0.032 kg/ha) | Postemergence herbicidal rating CASOB ([23]; 0.032 kg/ha)
2.0: AMBEL herbicidal rating ([2]; rate 0.032 kg/ha) | ORYSAT herbicidal rating ([3]; rate 0.032 kg/ha) | TRZAWR herbicidal rating ([8]; rate 0.032 kg/ha) | TRZAWR herbicidal rating ([8]; rate 0.125 kg/ha) | Postemergence herbicidal rating TRZAWR ([9]; 0.008 kg/ha) | CASOB herbicidal rating ([12]; rate 0.062 kg/ha) | Postemergence herbicidal rating ECHCG ([14]; 0.032 kg/ha) | GALAP herbicidal rating ([15]; rate 0.032 kg/ha) | ZEAMX herbicidal rating ([19]; rate 0.016 kg/ha)
7.0: AMBEL herbicidal rating ([2]; rate 0.062 kg/ha) | Postemergence herbicidal rating CHEAL ([13]; 0.016 kg/ha) | Postemergence herbicidal rating SETVI ([17]; 0.008 kg/ha) | Postemergence herbicidal rating SETVI ([17]; 0.032 kg/ha) | ZEAMX herbicidal rating ([19]; rate 0.062 kg/ha) | ZEAMX herbicidal rating ([19]; rate 0.125 kg/ha)
1.0: Postemergence herbicidal rating GALAP ([1]; 0.008 kg/ha) | ORYSAT herbicidal rating ([3]; rate 0.016 kg/ha) | ECHCG herbicidal rating ([7]; rate 0.016 kg/ha) | TRZAWR herbicidal rating ([8]; rate 0.016 kg/ha) | CASOB herbicidal rating ([12]; rate 0.032 kg/ha) | Postemergence herbicidal rating ECHCG ([14]; 0.008 kg/ha) | Postemergence herbicidal rating ECHCG ([14]; 0.016 kg/ha) | GALAP herbicidal rating ([15]; rate 0.016 kg/ha) | IPOHE herbicidal rating ([18]; rate 0.032 kg/ha) | IPOHE herbicidal rating ([18]; rate 0.062 kg/ha) | GLXMAW herbicidal rating ([22]; rate 0.016 kg/ha) | GLXMAW herbicidal rating ([22]; rate 0.032 kg/ha) | Postemergence herbicidal rating CASOB ([23]; 0.008 kg/ha) | Postemergence herbicidal rating CASOB ([23]; 0.016 kg/ha)
9.0: Postemergence herbicidal rating GALAP ([1]; 0.032 kg/ha) | AMBEL herbicidal rating ([2]; rate 0.125 kg/ha) | CHEAL herbicidal rating ([4]; rate 0.016 kg/ha) | CHEAL herbicidal rating ([4]; rate 0.032 kg/ha) | CHEAL herbicidal rating ([4]; rate 0.062 kg/ha) | CHEAL herbicidal rating ([4]; rate 0.125 kg/ha) | SETVI herbicidal rating ([5]; rate 0.016 kg/ha) | SETVI herbicidal rating ([5]; rate 0.032 kg/ha) | SETVI herbicidal rating ([5]; rate 0.062 kg/ha) | SETVI herbicidal rating ([5]; rate 0.125 kg/ha) | ECHCG herbicidal rating ([7]; rate 0.062 kg/ha) | ECHCG herbicidal rating ([7]; rate 0.125 kg/ha) | Postemergence herbicidal rating ABUTH ([10]; 0.008 kg/ha) | Postemergence herbicidal rating ABUTH ([10]; 0.016 kg/ha) | Postemergence herbicidal rating ABUTH ([10]; 0.032 kg/ha) | CASOB herbicidal rating ([12]; rate 0.125 kg/ha) | Postemergence herbicidal rating CHEAL ([13]; 0.032 kg/ha) | GALAP herbicidal rating ([15]; rate 0.062 kg/ha) | GALAP herbicidal rating ([15]; rate 0.125 kg/ha) | Postemergence herbicidal rating IPOHE ([16]; 0.008 kg/ha) | Postemergence herbicidal rating IPOHE ([16]; 0.016 kg/ha) | Postemergence herbicidal rating IPOHE ([16]; 0.032 kg/ha) | ABUTH herbicidal rating ([20]; rate 0.062 kg/ha) | ABUTH herbicidal rating ([20]; rate 0.125 kg/ha) | Postemergence herbicidal rating AMBEL ([21]; 0.016 kg/ha) | Postemergence herbicidal rating AMBEL ([21]; 0.032 kg/ha) | GLXMAW herbicidal rating ([22]; rate 0.125 kg/ha)
5.0: ORYSAT herbicidal rating ([3]; rate 0.062 kg/ha) | Postemergence herbicidal rating GLXMAW ([6]; 0.008 kg/ha) | Postemergence herbicidal rating ZEAMX ([11]; 0.016 kg/ha) | IPOHE herbicidal rating ([18]; rate 0.125 kg/ha) | Postemergence herbicidal rating AMBEL ([21]; 0.008 kg/ha) | GLXMAW herbicidal rating ([22]; rate 0.062 kg/ha)
4.0: Postemergence herbicidal rating GALAP ([1]; 0.016 kg/ha) | ECHCG herbicidal rating ([7]; rate 0.032 kg/ha) | Postemergence herbicidal rating TRZAWR ([9]; 0.016 kg/ha) | Postemergence herbicidal rating CHEAL ([13]; 0.008 kg/ha) | Postemergence herbicidal rating SETVI ([17]; 0.016 kg/ha) | ZEAMX herbicidal rating ([19]; rate 0.032 kg/ha)
2.5: Postemergence herbicidal rating ORYSAT ([24]; 0.008 kg/ha)
3.0: TRZAWR herbicidal rating ([8]; rate 0.062 kg/ha)
4.5: Postemergence herbicidal rating TRZAWR ([9]; 0.032 kg/ha) | Postemergence herbicidal rating ZEAMX ([11]; 0.008 kg/ha) | Postemergence herbicidal rating ORYSAT ([24]; 0.016 kg/ha) | Postemergence herbicidal rating ORYSAT ([24]; 0.032 kg/ha)
5.5: Postemergence herbicidal rating ZEAMX ([11]; 0.032 kg/ha)
